Measurements reported in patent US20260327250A1, “3-ETHYLAMINO-INDOLE DIMERS AS SEROTONERGIC AGENTS USEFUL FOR THE TREATMENT OF DISORDERS RELATED THERETO” (MINDSET PHARMA INC., priority 2022, published 2026).
pEC50: −log10 of the molar value. “Also recorded” adds a separate entry of the source. Counter-ions that a name gives are not always drawn. Like-named read-outs stand apart in the source and are kept apart here.

Key:
[1] = target: T1, human 5-hydroxytryptamine receptor 2A (5-HT2A) (Homo sapiens, UniProt P28223); experiment: Human 5-HT2A functional FLIPR assay (agonist mode); assay type: cell-based; settings: for RFU@10 μM: footnote: Curve fitting with activation (%) @ 10 mM with RFU
T1 construct: expressed in transfected cells; host or cells: HTR2A&Ga15-HEK293
Procedure: To assess the potential excitatory effects of compounds targeting on human 5-hydroxytryptamine receptor 2A (5-HT2A) under agonist mode
HTR2A&Ga15-HEK293 cells were cultured in DMEM medium containing 10% dialyzed FBS and 1× penicillin-streptomycin, 100 μg/mL Hygromycin B and 300 μg/mL G418. The cells were passaged about three times a week, maintained between ~30% to ~90% confluence.
• 1. The cell culture medium (DMEM medium containing 10% dialyzed FBS and 1× penicillin-streptomycin, 100 μg/mL Hygromycin B and 300 μg/mL G418), TrypLE™ Express and DPBS was warmed to R. T. in advance. • 2. For induction, 1 μg/ml tetracycline (final concentration) was added to cell culture medium and incubated for 48 hours prior to seeding cells into plate at 37° C., 5% (v/v) CO2. The cell culture medium was removed from flask. Washed cells with DPBS. • 3. 2 mL TrypLE™ Express was added to the flask, mixed well by gentle shaking and cells incubated at 37° C. for a few minutes. • 4. The cells morphological change was checked under microscope, and the digestion stopped by adding 4 mL cell culture medium to the flask when most of cells turned to round. • 5. The cell suspension was transferred into a 15 mL centrifuge tube, and then centrifuged at 1,200 rpm for 5 minutes. • 6. The supernatant was removed. The cell pellet was resuspended with 2 mL cell culture medium. • 7. The cell density was counted using cell counter. Only cells with >85% viability were used for the assay. • 8. Cells were diluted to 6.67×10^5/mL with cell culture medium. • 9. 30 μL/well cell suspensions was added into a 384-well cell plate (The cell density was 20,000 cells/well). • 10. The cell plate was incubated overnight at 37° C., 5% (v/v) CO2. 2.3 Cell handling • 1. On the day of experiments, culture medium was removed from the cell plate. • 12. 10 μL of assay buffer (20 mM HEPES, in 1× HBSS, pH 7.4) was added to each well of the cell plate. • 3. 2×dye solution was prepared following the manual of the FLIPR® Calcium 6 Assay Kit: • i. The dye was diluted with assay buffer. • ii. Probenecid was added to the final concentration of 5 mM. • iii. Vortexed vigorously for 1-2 minutes. • 4. 10 μL of 2× dye solution was added to each well of the cell plate • 5. The cell plate was placed on plate shaker, and was shaken at 600 rpm for 2 minutes. • 6. The plate was incubated at 37° C. for 2 hours followed by an additional 15-minute incubation at 25° C. 2.4 Prepare 3×compound • 1, Serotonin HCl was prepared to the concentration of 10 mM with DMSO. • 2. The test compounds were prepared to the concentration of 10 mM with DMSO. • 3. The compounds were added to a 384-well compound source plate. • 4. 3-folds serial dilutions were performed with DMSO. • 5. 90 nL/well of serial diluted compounds were transferred from source plate to a 384-well compound plate by using an Echo. • 6. 30 μL/well of assay buffer (20 mM HEPES in 1× HBSS, pH 7.4) were added to the compound plate. • 7. Mixed on the plate-on-plate shaker for 2 minutes.
• 1, After the cells were incubated with dye solution, the cell plate, compound plate containing 3×compounds and FLIPR tips were placed into FLIPR. • 2, 10 μL of 3×compounds were transferred from the compound plate to the cell plate by FLIPR. • 3, The plate was read for 160 sec with 1 sec interval to obtain the data of agonist mode.
• 1, The normalized fluorescence reading (RFU) was calculated as shown below, wherein Fmax and Fmin stand for maximum and minimum of calcium signal during defined time window:
[formula] • 2. EC50 was calculated by fitting RFU against log of compound concentrations with Hill equation using XLfit.

[2] = Dog plasma stability; settings: for Remaining Percentage: dog plasma, 0 min
Procedure: (§1) The stock solution of test compound was prepared in DMSO and diluted at the final concentration of 200 μM.
(§2) • a. 2.5 μL of 200 μM or 1 mM test compound or control compound solution was spiked to 497.5 μL plasma to reach a final concentration of 1 μM or 5 μM. The final concentration of organic solvents was 0.5%. The assay was performed in duplicated. • b. The reaction samples were incubated at 37° C. at approximately 60 rpm in a water bath. • c. Aliquots of 50 μL were taken from the reaction samples at 0, 30, 60, 120, 180 and 240 minutes. The reaction was stopped by the addition of 7 volumes of cold acetonitrile containing internal standards (IS: 100 nM alprazolam, 200 nM imipramine, 200 nM labetalol and 2 μM ketoprofen). • d. All samples were vortexed for 2 minutes, followed by centrifugation at 3,220 g for 30 minutes to precipitate proteins. 100 μL of the supernatant was transferred to a new plate. The supernatant was diluted with ultrapure water according to the LC-MS signal response and peak shape.
(§3) Samples were Analyzed by LC-MS/MS. • LC system: Shimadzu • MS analysis: Triple Quad™ 6500+ from AB Inc (Canada) with an ESI interface • Column temperature: 40° C. • Column: Xselect® Hss T3 2.5μ (2.1×30 mm) coupled with preguard column • Mobile phase: 0.1% formic acid in water (A) and 0.1% formic acid in acetonitrile (B)
(§4) All calculations were carried out using Microsoft Excel. Remaining percentages of parent compounds at each time point were estimated by determining the peak area ratios from extracted ion chromatograms.

[3] = in vitro; settings: rat, plasma
Procedure: as §1, §2, §3, §4

[4] = Human plasma stability; settings: for Remaining Percentage: human plasma, 0 min
Procedure: as §1, §2, §3, §4

[5] = Rat plasma stability; settings: for Remaining Percentage: rat plasma, 0 min
Procedure: as §1, §2, §3, §4

[6] = in vitro; settings: human
Procedure: (§5) The Caco-2 cell culture medium was prepared consisting of Dulbecco's Modified Eagle's Medium (DMEM) with high glucose and L-glutamine supplemented with 10% FBS, 1× penicillin-streptomycin mixture and 1× non-essential amino acids (NEAA). • 2. The 50 μL of culture medium was added to each well of the Transwell insert. Transwell insert was removed from reservoir and 25 mL of culture medium was added. • 3. Incubated at 37° C., 5% CO2 for 1 hour. Plates were ready for cell seeding. • 4. The cells were cultivated in T-75 flasks in a cell culture incubator set at 37° C., 5% CO2, 95% relative humidity. The cells were allowed to reach 80-90% confluence before detaching and splitting. • 5. The cultivated cells were rinsed in T-75 flasks with 5 mL PBS. Aspirated off, 1.5 mL trypsin/EDTA was added, and incubated at 37° C. for approximately 5 to 10 minutes or until the cells detach and float. Trypsin/EDTA was inactivated by adding excess serum containing medium. • 6. The cell suspension was moved to a conical tube and cells were pelleted by centrifugation at 120×g for 10 minutes. • 7. The cells were resuspended in seeding medium at a density of 6.86×10^5 cells/mL. This cell concentration can be used to seed 2.40×10^5 cells/cm^2. […] Seeding and Feeding of Caco-2 Cells in Transwell Plates • 1. 50 μL of above cell suspension was added to each well of a previously prepared Transwell plate. • 2. The plate was incubated for 14-18 days. The medium was replaced every other day, beginning no sooner than 48 hours after initial plating. • 3. The procedure for medium changes was as follows. The plate was removed from incubator and placed in hood. The medium was aspirated from reservoir and each Transwell insert. 75 μL of culture medium was added to each well of Transwell inserts and 25 mL of culture medium was added to reservoir tray. The plate was returned to incubator.
(§6) When the 14-day Caco-2 cultured cells have reached confluence and are differentiated, they were ready to be used for transport studies. • 2. The medium was removed from reservoir and Transwell inserts. • 3. 75 μL of pre-warmed culture medium was added to each transwell insert and 25 mL of reservoir tray. • 4. The electrical resistance across the monolayer was measured using automated tissue resistance measuring system (World Precision Instruments, Sarasota, FL). • 5. The electrical resistance was recorded for each well. • 6. Once all wells were measured, the plate was returned to incubator. • 7. TEER of each well was calculated by the equation below. The TEER value of each well should be greater than 230 ohms-cm^2. TEER measurement (ohms)×Area of membrane (cm^2)=TEER value (ohm-cm^2)
(§7) The Caco-2 plate was removed from the incubator. Next, the monolayer was washed, and the volume exchanged two times using pre-warmed HBSS (10 mM HEPES, pH 7.4). Then the plate was incubated for 30 minutes at 37° C. • 1 mM stock solutions of control compounds and test compound(s) were prepared in DMSO and diluted with HBSS (10 mM HEPES, pH 7.4) to reach the final concentration of 5 μM. The final concentration of DMSO in the incubation system was 0.5%. Digoxin, prazosin and propranolol were used as control compounds in this assay. • 3. HBSS (10 mM HEPES, pH 7.4) was removed after 30 minutes pre-incubation. • 4. The rate of drug transport was incubated in the apical to basolateral direction. 75 μL of the control compounds and test compound was added to the Transwell insert (apical compartment). The wells were filled in the receiver plate (basolateral compartment) with 235 μL of HBSS (10 mM HEPES, pH 7.4). • 5. The rate of drug transport was determined in the basolateral to apical direction. 235 μL of the control compounds and test compound(s) was added to the receiver plate wells (basolateral compartment). The Transwell insert (apical compartment) was filled with 75 μL of HBSS (10 mM HEPES, pH 7.4). • 6. […] Incubated at 37° C. for 2 hours. • 8.

[7] = Mouse plasma stability; settings: for Remaining Percentage: mouse plasma, 0 min
Procedure: as §1, §2, §3, §4

[8] = Human, rat and mouse liver microsomes stability (overall conclusion); assay type: in vitro ADME; settings: 60-minute time period
Procedure: This study was performed in duplicate.
All calculations were carried out using Microsoft Excel.
All calculations were carried out using Microsoft Excel. Peak areas were determined from extracted ion chromatograms.

[9] = in vitro; settings: mouse, plasma
Procedure: as §1, §2, §3, §4

[10] = Intestinal mucosal permeation using Caco-2 cell monolayers; settings: human
Procedure: as §5, §6, §7

[11] = target: 5-HT2A and 5-HT2C receptors; settings: compared with LSD; cited from earlier work
[12] = system: frontal cortex; settings: healthy participants, 15 or 20 mg orally; cited from earlier work
[13] = patients; psilocybin-assisted psychotherapy or supportive setting; cited from earlier work
[14] = system: 5-HT1A receptors; settings: cited from earlier work
[15] = system: brain's default mode network; settings: humans, intravenous; cited from earlier work
[16] = FLIPR, agonist mode, ND = Not detected, read-out: h5-HT2A, EC50
[17] = Caco-2, pH 7.4, Percentage recovery A→B, apical to basolateral
[18] = Caco-2, pH 7.4, Percentage recovery B→A, basolateral to apical

T1 sequence (P28223 whole entry): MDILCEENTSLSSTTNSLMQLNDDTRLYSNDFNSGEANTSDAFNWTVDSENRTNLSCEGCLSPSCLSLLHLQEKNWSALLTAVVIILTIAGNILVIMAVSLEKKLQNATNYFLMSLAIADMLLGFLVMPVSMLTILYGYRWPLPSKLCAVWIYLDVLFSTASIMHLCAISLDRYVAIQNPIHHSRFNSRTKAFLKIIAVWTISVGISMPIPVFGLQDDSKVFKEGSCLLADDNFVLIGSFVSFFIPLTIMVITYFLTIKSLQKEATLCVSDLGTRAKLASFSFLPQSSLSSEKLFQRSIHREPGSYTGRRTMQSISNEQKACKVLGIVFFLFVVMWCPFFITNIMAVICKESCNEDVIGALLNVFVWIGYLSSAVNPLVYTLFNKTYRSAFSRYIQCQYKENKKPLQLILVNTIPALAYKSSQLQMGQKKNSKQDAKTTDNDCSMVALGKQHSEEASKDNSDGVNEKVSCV

## CC(C)N(CCc1c[nH]c2cccc(O)c12)C(C)C [Compound 7]
[1]
  RFU@10 μM: 6358 RFU
[1]; [16]
  pEC50: 7.09

## CN(C)CCc1c[nH]c2cccc(OC(=O)CCCC(=O)Oc3cccc4[nH]cc(CCN(C)C)c34)c12 [Compound I-24, Bis(3-(2-(dimethylamino)ethyl)-1H-indol-4-yl) glutarate]
[2]
  Remaining Percentage: 100.00%
[3]
  remaining at 0.5 h: 0%
  remaining at 1 h: 0%
  remaining at 2 h: 0%
  remaining at 3 h: 0%
  remaining at 4 h: 0%
[4]
  Remaining Percentage: 100.00%
[5]
  Remaining Percentage: 100.00%
[6]; Caco-2, pH 7.4
  Papp A→B at 2 h, 5 µM: 0.27 ×10⁻⁶ cm/s
  Papp B→A at 2 h, 5 µM: 2.47 ×10⁻⁶ cm/s
  efflux ratio at 2 h, 5 µM: 9.16
[6]; [17]
  recovery at 2 h, 5 µM: 112%
[6]; [18]
  recovery at 2 h, 5 µM: 105%
[7]
  Remaining Percentage: 100.00%
[8]
  metabolic stability (conclusion): rapidly metabolized
[9]
  remaining at 0.5 h: 0%
  remaining at 1 h: 0%
  remaining at 2 h: 0%
  remaining at 3 h: 0%
  remaining at 4 h: 0%
[1]
  RFU@10 μM: 3061 RFU
[1]; [16]
  pEC50: 7.60

## CC(C)N(CCc1c[nH]c2cccc(OC(=O)CCCC(=O)Oc3cccc4[nH]cc(CCN(C(C)C)C(C)C)c34)c12)C(C)C [Compound I-37, Bis(3-(2-(diisopropylamino)ethyl)-1H-indol-4-yl) glutarate dihydrochloride]
[2]
  Remaining Percentage: 100.00%
[2]; dog, plasma
  half-life: 1.91 h
  remaining at 0.5 h: 82.6%
  remaining at 1 h: 70.5%
  remaining at 2 h: 50.5%
  remaining at 3 h: 31.6%
  remaining at 4 h: 24.2%
[4]
  Remaining Percentage: 100.00%
[4]; human, plasma
  remaining at 0.5 h: 0%
  remaining at 1 h: 0%
  remaining at 2 h: 0%
  remaining at 3 h: 0%
  remaining at 4 h: 0%
[5]
  Remaining Percentage: 100.00%
[5]; rat, plasma
  remaining at 0.5 h: 0%
  remaining at 1 h: 0%
  remaining at 2 h: 0%
  remaining at 3 h: 0%
  remaining at 4 h: 0%
[10]; Caco-2, pH 7.4
  Papp A→B at 2 h, 5 µM: 0.54 ×10⁻⁶ cm/s
  Papp B→A at 2 h, 5 µM: 11.3 ×10⁻⁶ cm/s
  efflux ratio at 2 h, 5 µM: 21
[10]; [17]
  recovery at 2 h, 5 µM: 74.9%
[10]; [18]
  recovery at 2 h, 5 µM: 107%
[7]
  Remaining Percentage: 100.00%
[7]; mouse, plasma
  remaining at 0.5 h: 0%
  remaining at 1 h: 0%
  remaining at 2 h: 0%
  remaining at 3 h: 0%
  remaining at 4 h: 0%
[8]
  metabolic stability (conclusion): rapidly metabolized
[1]
  pEC50: 6.80
  RFU@10 μM: 6768 RFU

## CN(C)CCc1c[nH]c2cccc(O)c12 [Psilocin, 4-hydroxy-N,N-dimethyltryptamine, reference compound]
[6]; Caco-2, pH 7.4
  Papp A→B at 2 h, 5 µM: 24.6 ×10⁻⁶ cm/s
  Papp B→A at 2 h, 5 µM: 18.7 ×10⁻⁶ cm/s
[1]
  RFU@10 μM: 308 RFU

## CN(C)CCc1c[nH]c2cccc(OP(=O)(O)O)c12 [Psilocybin]
[11]
  K(i): lower K(i) for both 5-HT2A and 5-HT2C receptors than LSD
[12]
  absolute metabolic rate of glucose: increased absolute metabolic rate of glucose in frontal, and to a lesser extent in other, cortical regions as well as in striatal and limbic subcortical structures
[13]
  relief of depression and anxiety: unprecedented positive relief of anxiety and depression; also recorded: significant and sustained anti-depressant and anxiolytic effects
[14]
  activation of 5-HT1A receptors: activates 5-HT1A receptors
[15]
  oscillatory power: decreases in oscillatory power in areas of the brain's default mode network
[1]
  RFU@10 μM: 257 RFU
